Measured values published in ChEMBL document CHEMBL5346952, “Dimer Peptide Ligands of Vascular Endothelial Growth Factor: Optimizing Linker Length for High Affinity and Antiangiogenic Activity” (J Med Chem, 2023).
Starred links: 1 amine or outer side, 2 acyl side, 3 side chain; linkers in the order of their positions; H or OH if unused. Positions of bridges follow the written chain, without caps; N, C: chain ends. Residues, ends and D or L forms follow the SMILES beside them. Chains are numbered I, II in the order given. CO(CH2)2(OCH2CH2)17CO = O=C(CCOCCOCCOCCOCCOCCOCCOCCOCCOCCOCCOCCOCCOCCOCCOCCOCCOCCC(=O)[*:2])[*:1]; X3 = O=C(CCOCCOCCOCCOCCOCCOCCOCCOCCOCCOCCOCCOCCOCCOCCOCCOCCOCCOCCOCCOCCOCCC(=O)[*:2])[*:1]; CO(CH2CH2O)13CH2CH2CO = O=C(CCOCCOCCOCCOCCOCCOCCOCCOCCOCCOCCOCCOCCOCCC(=O)[*:2])[*:1]; CO(CH2CH2O)9CH2CH2CO = O=C(CCOCCOCCOCCOCCOCCOCCOCCOCCOCCC(=O)[*:2])[*:1]

How the values were obtained:
[1] = target: T1, Vascular endothelial growth factor A, long form (Homo sapiens, UniProt P15692); assay: Binding affinity to human VEGF (13 to 107 residues) expressed in Escherichia coli Rosetta (DE3) cells assessed as dissociation constant at 20 degreeC by isothermal titration calorimetry analysis
T1 sequence (P15692 whole entry): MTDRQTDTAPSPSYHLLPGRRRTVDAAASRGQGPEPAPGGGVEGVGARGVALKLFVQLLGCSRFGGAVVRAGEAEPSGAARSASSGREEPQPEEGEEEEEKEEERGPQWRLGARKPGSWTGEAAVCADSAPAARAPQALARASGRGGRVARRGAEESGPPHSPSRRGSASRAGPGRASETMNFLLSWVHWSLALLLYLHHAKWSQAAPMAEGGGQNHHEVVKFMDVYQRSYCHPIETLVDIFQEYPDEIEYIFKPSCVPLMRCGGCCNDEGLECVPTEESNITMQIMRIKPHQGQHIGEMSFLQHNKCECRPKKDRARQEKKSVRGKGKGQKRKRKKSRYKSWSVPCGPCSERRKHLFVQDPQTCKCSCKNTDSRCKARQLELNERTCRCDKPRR

[2] = target: T2, Vascular endothelial growth factor A, long form (Homo sapiens) (UniProt P15692); assay: Binding affinity to human VEGF (13 to 107 residues) expressed in Escherichia coli Rosetta (DE3) cells assessed as Gibbs free energy change at 20 degreeC by isothermal titration calorimetry analysis
T2 sequence (whole entry): T1 sequence (P15692 whole entry)

[3] = target: T2, Vascular endothelial growth factor A, long form (Homo sapiens); assay: Binding affinity to human VEGF (13 to 107 residues) expressed in Escherichia coli Rosetta (DE3) cells assessed as change in enthalpy at 20 degreeC by isothermal titration calorimetry analysis
[4] = target: T2, Vascular endothelial growth factor A, long form (Homo sapiens); assay: Binding affinity to human VEGF (13 to 107 residues) expressed in Escherichia coli Rosetta (DE3) cells assessed as change in entropy at 20 degreeC by isothermal titration calorimetry analysis
[5] = target: T2, Vascular endothelial growth factor A, long form (Homo sapiens); assay: Binding affinity to human VEGF (13 to 107 residues) expressed in Escherichia coli Rosetta (DE3) cells assessed as change in heat capacity at 20 degreeC by isothermal titration calorimetry analysis
[6] = target: T1, Vascular endothelial growth factor A, long form; assay: Binding affinity to human VEGF (13 to 107 residues) expressed in Escherichia coli Rosetta (DE3) cells assessed as dissociation constant at 37 degreeC by isothermal titration calorimetry analysis
[7] = target: T2, Vascular endothelial growth factor A, long form (Homo sapiens); assay: Binding affinity to human VEGF (13 to 107 residues) expressed in Escherichia coli Rosetta (DE3) cells assessed as Gibbs free energy change at 37 degreeC by isothermal titration calorimetry analysis
[8] = target: T2, Vascular endothelial growth factor A, long form (Homo sapiens); assay: Binding affinity to human VEGF (13 to 107 residues) expressed in Escherichia coli Rosetta (DE3) cells assessed as change in enthalpy at 37 degreeC by isothermal titration calorimetry analysis
[9] = target: T2, Vascular endothelial growth factor A, long form (Homo sapiens); assay: Binding affinity to human VEGF (13 to 107 residues) expressed in Escherichia coli Rosetta (DE3) cells assessed as change in entropy at 37 degreeC by isothermal titration calorimetry analysis
[10] = test system: HUVEC; assay: Antiangiogenic activity in human HUVEC cells assessed as inhibition of VEGFA-induced capillary tube formation incubated for 6 hrs by matrigel based microscopic analysis; assay type: functional, cell-based
[11] = test system: HUVEC; assay: Antiangiogenic activity in human HUVEC cells assessed as inhibition of VEGFA-induced cell migration incubated for 12 hrs by wound healing assay; assay type: functional, cell-based

| SMILES | Kd [1] [nM] | deltaG [2] [kcal/mol] | deltaH [3] [kcal/mol] | -TdeltaS [4] [kcal/mol] | DeltaCp [5] [kcal/mol/K] | Kd [6] [nM] | deltaG [7] [kcal/mol] | deltaH [8] [kcal/mol] | -TdeltaS [9] [kcal/mol] | Activity [10] | Activity [11] |
| --- | --- | --- | --- | --- | --- | --- | --- | --- | --- | --- | --- |
| CC[C@H](C)[C@@H]1NC(=O)[C@H](CC(=O)O)NC(=O)[C@@H](NC(C)=O)CSSC[C@@H]2NC(=O)[C@H](CCCCNC(=O)C[C@@H](C(=O)N[C@@H](CC(C)C)C(N)=O)NC(=O)[C@H](CCC(=O)O)NC(=O)[C@H](Cc3ccccc3)NC2=O)NC(=O)[C@H](Cc2c[nH]c3ccccc23)NC(=O)[C@H](CCC(=O)O)NC(=O)[C@H](Cc2c[nH]c3ccccc23)NC(=O)[C@H](CCCCNC(C)=O)NC(=O)[C@H](C(C)C)NC(=O)[C@H](Cc2cnc[nH]2)NC1=O (Ac-CDIHVK(Ac)WEWKCFEDL-NH2; disulfide 1-11; lactam 10-14) | 50 | -9.79 | -19.5 | 9.66 | -0.36 | 272 | -9.32 | -25.5 | 16.2 | Dose-Dependent Effect | Dose-Dependent Effect |
| CC[C@H](C)[C@@H]1NC(=O)[C@H](CC(=O)O)NC(=O)[C@@H](NC(C)=O)CSSC[C@@H]2NC(=O)[C@H](CCCCNC(=O)C[C@@H](C(=O)N[C@@H](CC(C)C)C(N)=O)NC(=O)[C@H](CCC(=O)O)NC(=O)[C@H](Cc3ccccc3)NC2=O)NC(=O)[C@H](Cc2c[nH]c3ccccc23)NC(=O)[C@H](CCC(=O)O)NC(=O)[C@H](Cc2c[nH]c3ccccc23)NC(=O)[C@H](CCCCN)NC(=O)[C@H](C(C)C)NC(=O)[C@H](Cc2cnc[nH]2)NC1=O (Ac-CDIHVKWEWKCFEDL-NH2; disulfide 1-11; lactam 10-14) | 129 |  |  |  |  | 573 |  |  |  |  |  |
| COc1ccc([C@H]2CNC(=O)C2)cc1OC1CCCC1 [S-ROLIPRAM] |  | -12.3 | -29.3 | 17 |  |  |  |  |  |  |  |

Further compounds by falling Kd [1], results first:

| Kd [1] [nM] | deltaG [2] [kcal/mol] | deltaH [3] [kcal/mol] | -TdeltaS [4] [kcal/mol] | DeltaCp [5] [kcal/mol/K] | Kd [6] [nM] | deltaG [7] [kcal/mol] | deltaH [8] [kcal/mol] | -TdeltaS [9] [kcal/mol] | SMILES | Activity [10] | Activity [11] |
| --- | --- | --- | --- | --- | --- | --- | --- | --- | --- | --- | --- |
| 26 | -10.2 | -32.8 | 22.6 | -0.55 | 90 | -10 | -42.1 | 32.1 | CC[C@H](C)[C@@H]1NC(=O)[C@H](CC(=O)O)NC(=O)[C@@H](NC(C)=O)CSSC[C@@H]2NC(=O)[C@H](CCCCNC(=O)C[C@@H](C(=O)N[C@@H](CC(C)C)C(N)=O)NC(=O)[C@H](CCC(=O)O)NC(=O)[C@H](Cc3ccccc3)NC2=O)NC(=O)[C@H](Cc2c[nH]c3ccccc23)NC(=O)[C@H](CCC(=O)O)NC(=O)[C@H](Cc2c[nH]c3ccccc23)NC(=O)[C@H](CCCCNC(=O)CCOCCOCCOCCOCCOCCOCCOCCOCCOCCC(=O)NCCCC[C@@H]2NC(=O)[C@H](C(C)C)NC(=O)[C@H](Cc3cnc[nH]3)NC(=O)[C@H]([C@@H](C)CC)NC(=O)[C@H](CC(=O)O)NC(=O)[C@@H](NC(C)=O)CSSC[C@@H]3NC(=O)[C@H](CCCCNC(=O)C[C@@H](C(=O)N[C@@H](CC(C)C)C(N)=O)NC(=O)[C@H](CCC(=O)O)NC(=O)[C@H](Cc4ccccc4)NC3=O)NC(=O)[C@H](Cc3c[nH]c4ccccc34)NC(=O)[C@H](CCC(=O)O)NC(=O)[C@H](Cc3c[nH]c4ccccc34)NC2=O)NC(=O)[C@H](C(C)C)NC(=O)[C@H](Cc2cnc[nH]2)NC1=O (I: Ac-CDIHVKWEWKCFEDL-NH2 / II: Ac-CDIHVKWEWKCFEDL-NH2; disulfide I:1-I:11, II:1-II:11; linker I:6-II:6 via CO(CH2CH2O)9CH2CH2CO; lactam I:10-I:14, II:10-II:14) |  |  |
| 22 | -10.3 | -38.1 | 27.9 | -0.6 | 51 | -10.4 | -48.3 | 37.9 | CC[C@H](C)[C@@H]1NC(=O)[C@H](CC(=O)O)NC(=O)[C@@H](NC(C)=O)CSSC[C@@H]2NC(=O)[C@H](CCCCNC(=O)C[C@@H](C(=O)N[C@@H](CC(C)C)C(N)=O)NC(=O)[C@H](CCC(=O)O)NC(=O)[C@H](Cc3ccccc3)NC2=O)NC(=O)[C@H](Cc2c[nH]c3ccccc23)NC(=O)[C@H](CCC(=O)O)NC(=O)[C@H](Cc2c[nH]c3ccccc23)NC(=O)[C@H](CCCCNC(=O)CCOCCOCCOCCOCCOCCOCCOCCOCCOCCOCCOCCOCCOCCOCCOCCOCCOCCC(=O)NCCCC[C@@H]2NC(=O)[C@H](C(C)C)NC(=O)[C@H](Cc3cnc[nH]3)NC(=O)[C@H]([C@@H](C)CC)NC(=O)[C@H](CC(=O)O)NC(=O)[C@@H](NC(C)=O)CSSC[C@@H]3NC(=O)[C@H](CCCCNC(=O)C[C@@H](C(=O)N[C@@H](CC(C)C)C(N)=O)NC(=O)[C@H](CCC(=O)O)NC(=O)[C@H](Cc4ccccc4)NC3=O)NC(=O)[C@H](Cc3c[nH]c4ccccc34)NC(=O)[C@H](CCC(=O)O)NC(=O)[C@H](Cc3c[nH]c4ccccc34)NC2=O)NC(=O)[C@H](C(C)C)NC(=O)[C@H](Cc2cnc[nH]2)NC1=O (I: Ac-CDIHVKWEWKCFEDL-NH2 / II: Ac-CDIHVKWEWKCFEDL-NH2; disulfide I:1-I:11, II:1-II:11; linker I:6-II:6 via CO(CH2)2(OCH2CH2)17CO; lactam I:10-I:14, II:10-II:14) |  |  |
| 20 | -10.3 | -36.3 | 26 | -0.57 | 56 | -10.3 | -46 | 35.7 | CC[C@H](C)[C@@H]1NC(=O)[C@H](CC(=O)O)NC(=O)[C@@H](NC(C)=O)CSSC[C@@H]2NC(=O)[C@H](CCCCNC(=O)C[C@@H](C(=O)N[C@@H](CC(C)C)C(N)=O)NC(=O)[C@H](CCC(=O)O)NC(=O)[C@H](Cc3ccccc3)NC2=O)NC(=O)[C@H](Cc2c[nH]c3ccccc23)NC(=O)[C@H](CCC(=O)O)NC(=O)[C@H](Cc2c[nH]c3ccccc23)NC(=O)[C@H](CCCCNC(=O)CCOCCOCCOCCOCCOCCOCCOCCOCCOCCOCCOCCOCCOCCC(=O)NCCCC[C@@H]2NC(=O)[C@H](C(C)C)NC(=O)[C@H](Cc3cnc[nH]3)NC(=O)[C@H]([C@@H](C)CC)NC(=O)[C@H](CC(=O)O)NC(=O)[C@@H](NC(C)=O)CSSC[C@@H]3NC(=O)[C@H](CCCCNC(=O)C[C@@H](C(=O)N[C@@H](CC(C)C)C(N)=O)NC(=O)[C@H](CCC(=O)O)NC(=O)[C@H](Cc4ccccc4)NC3=O)NC(=O)[C@H](Cc3c[nH]c4ccccc34)NC(=O)[C@H](CCC(=O)O)NC(=O)[C@H](Cc3c[nH]c4ccccc34)NC2=O)NC(=O)[C@H](C(C)C)NC(=O)[C@H](Cc2cnc[nH]2)NC1=O (I: Ac-CDIHVKWEWKCFEDL-NH2 / II: Ac-CDIHVKWEWKCFEDL-NH2; disulfide I:1-I:11, II:1-II:11; linker I:6-II:6 via CO(CH2CH2O)13CH2CH2CO; lactam I:10-I:14, II:10-II:14) |  |  |
| 15 | -10.5 | -36.6 | 26.1 | -0.86 | 37 | -10.5 | -51.3 | 40.7 | CC[C@H](C)[C@@H]1NC(=O)[C@H](CC(=O)O)NC(=O)[C@@H](NC(C)=O)CSSC[C@@H]2NC(=O)[C@H](CCCCNC(=O)C[C@@H](C(=O)N[C@@H](CC(C)C)C(N)=O)NC(=O)[C@H](CCC(=O)O)NC(=O)[C@H](Cc3ccccc3)NC2=O)NC(=O)[C@H](Cc2c[nH]c3ccccc23)NC(=O)[C@H](CCC(=O)O)NC(=O)[C@H](Cc2c[nH]c3ccccc23)NC(=O)[C@H](CCCCNC(=O)CCOCCOCCOCCOCCOCCOCCOCCOCCOCCOCCOCCOCCOCCOCCOCCOCCOCCOCCOCCOCCOCCC(=O)NCCCC[C@@H]2NC(=O)[C@H](C(C)C)NC(=O)[C@H](Cc3cnc[nH]3)NC(=O)[C@H]([C@@H](C)CC)NC(=O)[C@H](CC(=O)O)NC(=O)[C@@H](NC(C)=O)CSSC[C@@H]3NC(=O)[C@H](CCCCNC(=O)C[C@@H](C(=O)N[C@@H](CC(C)C)C(N)=O)NC(=O)[C@H](CCC(=O)O)NC(=O)[C@H](Cc4ccccc4)NC3=O)NC(=O)[C@H](Cc3c[nH]c4ccccc34)NC(=O)[C@H](CCC(=O)O)NC(=O)[C@H](Cc3c[nH]c4ccccc34)NC2=O)NC(=O)[C@H](C(C)C)NC(=O)[C@H](Cc2cnc[nH]2)NC1=O (I: Ac-CDIHVKWEWKCFEDL-NH2 / II: Ac-CDIHVKWEWKCFEDL-NH2; disulfide I:1-I:11, II:1-II:11; linker I:6-II:6 via X3; lactam I:10-I:14, II:10-II:14) |  |  |
